Source: paper PMC11227536, “Modulation of the Meisenheimer complex metabolism of nitro-benzothiazinones by targeted C-6 substitution” (Communications Chemistry, 2024)
Values after ≈ are worked out from the molar mass of the structure shown.

Assays:
[1] = system: Mycobacterium smegmatis (JMRC:STH:00056); test: MIC determination; assay type: cell-based; conditions: Mycolicibacterium smegmatis; n = 1
Method: (§1) Supplementary Method 5: Biological Assays
Minimal inhibitory concentrations were determined against Mycobacterium vaccae (JMRC:STI:10670) and Mycobacterium smegmatis (JMRC:STH:00056). M. vaccae and M. smegmatis cultures were grown 48 h at 32 °C in a medium consisting of glycerol (1%), beef extract (0.5%), peptone from casein (0.5%) and sodium chloride (0.3%). Serial dilutions of the DMSO test item solutions (1 mg∙mL -1) were prepared at 100 µL scale in 96 well plates in Mueller Hinton broth starting at 200 µg∙mL -1 (highest) to cover a final concentration range of 100 to 0.05 µg∙mL -1. Each plate was equipped with a series of DMSO and ciprofloxacin dilutions as quality controls. 96 well plates were inoculated with 100 µL diluted culture (Mueller Hinton bullion) at a final concentration of 5∙10 5 and incubated at 37 °C for 42 h. Growth/no growth was visually inspected. […]

[2] = system: human liver microsomes; test: Microsomal stability assay; assay type: in vitro ADME; conditions: for Eh (hepatic extraction ratio): fu = 1, Q = 20.0 mL∙min-1∙kg-1, human; for Clint,micro: human liver microsomes
Method: 4. Microsomal stability assay
A microsomal stability assay was performed according to an internal standard procedure. Positive control compound diclofenac and three test items were freshly prepared as sub-dilutions in phosphate buffer (100 mM, pH 7.4) at concentrations of 200 µM and 20 µM, respectively. All incubations were conducted in triplicate in glass screw neck vials (1.5 mL, flat bottom, Macherey-Nagel, Düren, Germany) on a Thermomixer C (Eppendorf, Germany) at 37 °C and 1500 rpm. The incubation mixtures contained 270 µL human liver microsomes (HLM, 1.1 mg∙mL -1, UltraPool HLM 150, Corning B.V.
Life Science, Amsterdam, the Netherlands), 270 µL NADP regeneration mix (1 mM NADP, 5 mM glucose-6-phosphate, 5 units∙mL -1 glucose-6-phosphate dehydrogenase and 5 mM MgCl 2) and 30 µL phosphate buffer to reach a total volume of 570 µL. Negative controls were performed with heat inactivated (80 °C, 30 min) HLM solution. Reactions were initiated by addition of diclofenac or the test item solution (30 µL). Aliquots of 100 µL were taken at 1, 15, 30, 60, and 90 minutes and immediately processed with 100 µL acetonitrile at 4°C to terminate the reactions, and shaken for 2 minutes at 4°C with 1600 rpm. The mixed samples were further centrifuged for 2 minutes at 4 °C with 16.1 krcf. The supernatants were withdrawn and subjected to high resolution mass spectrometry analysis without […]
Analysis of microsomal stability assay
Samples were analyzed using a Vanquish Horizon UHPLC system (Thermo Fisher Scientific, Bremen, Germany) coupled to a Thermo Scientific QExactive HF-X Orbitrap mass spectrometer (Thermo Fisher Scientific, Bremen, Germany) using a UPLC column (ACQUITY HSS T3, Waters, 1.8 µm particle size, 2.1 × 50 mm dimensions) equipped with a pre-column (ACQUITY HSS T3 VanGuard Pre-column, Waters, 1.8 µm particle size, 2.1 × 5 mm dimensions). The column temperature was maintained at 25°C, and the samples were kept at 4°C. The UHPLC system was operated at a flow rate of 0.6 mL/min and an injection volume of 5 µL. Mobile phases consisted of 0.1% (v/v) formic acid in water (Eluent A) and 0.1% (v/v) formic acid in acetonitrile (Eluent B). Chromatographic separation was obtained as follows:
0 to 4 min: a linear from 5 to 98% of Eluent B; 4 to 6.5 min: isocratic at 98% B; 6.5 to 7 min: linear from 98 to 5% B; 7 to 9 min: isocratic at 5% B. The high-resolution mass spectra were acquired with electrospray ionization at both positive and negative modes. A scan range of m/z 120 to 1800 was chosen, and the maximum injection time was set to 200 ms. Ion source parameters were: spray voltage 3.5 kV, capillary temperature 320°C, RF level 40, sheath gas pressure 50 (N 2 > 95%), auxiliary gas 10 (N2 > 95%), auxiliary gas heater temperature 300°C. The value for the automatic gain control (AGC) target was set to 10 6, resolution was 60000, and chromatographic peak width (FWHM) was 15 s.
Calculation of the results from microsomal stability assay
Elimination rate constant (k) = (- gradient)
Half-life (t ) (min) = ௟௡
V (µL∙mg -1) = ௩௢௟௨௠௘ ௢௙ ௜௡௖௨௕௔௧௜௢௡ (µ௅) […]
Intrinsic clearance in liver microsomes (Cl ) (µL∙min∙mL -1protein) = ௏ × ௟௡ଶ […]
Intrinsic clearance (Cl ) (mL∙min -1∙kg -1) = ௟௡ × ௏ × ௠௚ ௠௜௖௥௢௦௢௠௔௟ ௣௥௢௧௘௜௡ × ௚ ௟௜௩௘௥ int ௧భ/మ ଵ଴଴଴ ௚ ௟௜௩௘௥ ௪௘௜௚௛௧ ௞௚ ௕௢ௗ௬ ௪௘௜௚௛௧
(52.5 mg protein∙ g -1 liver used for human; 22.0 g∙ kg -1 liver to body weight used for human) Hepatic extraction ratio (E ) = ୤౫ × େ୪౟౤౪
(fu: fraction of drug unbound in plasma, f u = 1 used for the calculation; Q: hepatic blood flow, 20.0 mL∙min-1∙kg -1 for human).

[3] = system: Mycobacterium vaccae (JMRC:STI:10670); test: MIC determination; assay type: cell-based; conditions: for MIC: Mycolicibacterium vaccae, n = 1; for Selectivity index: ratio between CC50 (HeLa) and MIC M. vaccae; for antimycobacterial activity (in words): M. vaccae
Method: as §1
Minimal inhibitory concentrations were determined against Mycobacterium vaccae (JMRC:STI:10670) and Mycobacterium smegmatis (JMRC:STH:00056). M. vaccae and M. smegmatis cultures were grown 48 h at 32 °C in a medium consisting of glycerol (1%), beef extract (0.5%), peptone from casein (0.5%) and sodium chloride (0.3%). Serial dilutions of the DMSO test item solutions (1 mg∙mL -1) were prepared at 100 µL scale in 96 well plates in Mueller Hinton broth starting at 200 µg∙mL -1 (highest) to cover a final concentration range of 100 to 0.05 µg∙mL -1. Each plate was equipped with a series of DMSO and ciprofloxacin dilutions as quality controls. 96 well plates were inoculated with 100 µL diluted culture (Mueller Hinton bullion) at a final concentration of 5∙10 5 and incubated at 37 °C for 42 h. Growth/no growth was visually inspected.
2. Proliferation and cytotoxicity assay
Cells and culture conditions
The following cell lines and media were used:
Cell line Cell culture medium
Cells were grown in the appropriate cell culture medium supplemented with 10 mL/L ultraglutamine 1 […]
heat inactivated fetal bovine serum (GIBCO Life Technologies 10270-106) at 37 °C in 5% CO 2 in high density polyethylene flasks (NUNC 156340).
To decide if the compounds have an antiproliferative and/or a cytotoxic effect on human cells, cell death and retardation of cell proliferation were assessed. Under our experimental conditions, the optical density measured from the CellTiter-Blue® reagent and methylene blue assay is proportional to the […]
The test substances were dissolved in DMSO and further diluted in the cell culture medium. The adherent cells were harvested at the logarithmic growth phase after soft trypsinization using 0.25% trypsin in PBS containing 0.02% EDTA (Biochrom KG L2163). For each experiment, approximately 10,000 cells were seeded with 0.1 mL culture medium per well of the 96-well microplates (HUVEC: flat bottomed NUNC 167008, K-562: round bottomed NUNC 163320). To test the antiproliferative

| SMILES | MIC [1] [µM] | Eh (hepatic extraction ratio) [2] [%] | Clint,micro [2] [µl.min-1-mg-1 protein] | MIC [3] [µM] | Selectivity index [3] | antimycobacterial activity (in words) [3] | MIC ([3]; 42 h) [µM] |
| --- | --- | --- | --- | --- | --- | --- | --- |
| COC(=O)c1cc([N+](=O)[O-])c2sc(N3CCC4(CC3)OC[C@H](C)O4)nc(=O)c2c1 [Compound 6a] | 3.7 (≈ 1.56 µg/mL) | 94.8 | 314.7 | 0.24 (≈ 0.101 µg/mL) | > 500 |  |  |
| CC(C)OC(=O)c1cc([N+](=O)[O-])c2sc(N3CCC4(CC3)OC[C@H](C)O4)nc(=O)c2c1 [Compound 6c] | 6.94 (≈ 3.12 µg/mL) | 75.3 | 52.9 | 0.22 (≈ 0.0989 µg/mL) | > 500 |  |  |
| C[C@H]1COC2(CCN(c3nc(=O)c4cc(C(=O)N(C)C)cc([N+](=O)[O-])c4s3)CC2)O1 [Compound 7c] | 230 (≈ 100 µg/mL) | 13 | 2.6 | 28.8 (≈ 12.5 µg/mL) | > 4 |  |  |
| CON(C)C(=O)c1cc([N+](=O)[O-])c2sc(N3CCC4(CC3)OC[C@H](C)O4)nc(=O)c2c1 [Compound 7f] | 111 (≈ 50 µg/mL) | 35.5 | 9.5 | 13.9 (≈ 6.26 µg/mL) | > 8 |  |  |
| C[C@H]1COC2(CCN(c3nc(=O)c4cc(C(=O)O)cc([N+](=O)[O-])c4s3)CC2)O1 [Compound 8] | 15.3 (≈ 6.23 µg/mL) |  |  | 0.98 (≈ 0.399 µg/mL) | > 125 | moderate activity |  |
| C[C@H]1COC2(CCN(c3nc(=O)c4cc(C#N)cc([N+](=O)[O-])c4s3)CC2)O1 [Compound 9] | 0.13 (≈ 0.0505 µg/mL) | 43.5 | 13.3 | 0.016 (≈ 0.00621 µg/mL) | > 8062 | similarly active as BTZ-043 (1) |  |
| C[C@H]1COC2(CCN(c3nc(=O)c4cc(I)cc([N+](=O)[O-])c4s3)CC2)O1 [Compound 10] | 0.1 (≈ 0.0489 µg/mL) | 48.8 | 16.1 | 0.006 (≈ 0.00294 µg/mL) | > 16114 | similarly active as BTZ-043 (1) |  |
| C[C@H]1COC2(CCN(c3nc(=O)c4cc(Br)cc([N+](=O)[O-])c4s3)CC2)O1 [Compound 11] | 0.057 (≈ 0.0252 µg/mL) | 47.9 | 16 | 0.004 (≈ 0.00177 µg/mL) | > 31236 | similarly active as BTZ-043 (1) |  |
| C[C@H]1COC2(CCN(c3nc(=O)c4cccc([N+](=O)[O-])c4s3)CC2)O1 [Compound 23] | 8.59 (≈ 3.12 µg/mL) | 22.5 | 5.1 |  | > 125 | significantly lower activity than 1 | 1.1 (≈ 0.4 µg/mL) |
